Consider 1 cell line from the supplement of paper PMC10307832.

Common to all, as to test: relative viability (nuclei count vs DMSO), 5 days (fraction); higher = more cells survive
Compound in assay [1]: CCn1c(-c2nonc2N)nc2c(C#CC(C)(C)O)ncc(OC[C@H]3CCCNC3)c21 + CS(=O)(=O)N1CCN(Cc2cc3nc(-c4cccc5[nH]ncc45)nc(N4CCOCC4)c3s2)CC1 [Pictilisib] (partner 1 µM)
In short, it runs like this: (§1)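 Lung cancer cell lines in 1536-well plates got either a single drug or a fixed anchor-drug dose together with five library-drug doses (not always all listed) in √10 steps, by pin tool, on the day after seeding. Nuclei were counted after 5 days, and relative viability is the treated-to-vehicle ratio of nuclei counts. Values are medians of duplicate plates.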

Compound in assay [2]: CCOC1=CC=CC=C1N=NC2=C(NN(C2=O)C3=NC(=CS3)C4=CC=CC=C4)C [BAM7] + Cc1nc(Nc2ncc(C(=O)Nc3c(C)cccc3Cl)s2)cc(N2CCN(CCO)CC2)n1 [Dasatinib] (partner 0.075 µM)
In short, it runs like this:
as §1

Compound in assay [3]: CCn1c(-c2nonc2N)nc2c(C#CC(C)(C)O)ncc(OC[C@H]3CCCNC3)c21 + CCNC(=O)c1noc(-c2cc(C(C)C)c(O)cc2O)c1-c1ccc(CN2CCOCC2)cc1 [Luminespib] (partner 0.01 µM)
Put shortly:
as §1

Compound in assay [4]: CCOC1=CC=CC=C1N=NC2=C(NN(C2=O)C3=NC(=CS3)C4=CC=CC=C4)C [BAM7] + Nc1nc2[nH]cc(CCc3ccc(C(=O)N[C@@H](CCC(=O)O)C(=O)O)cc3)c2c(=O)[nH]1 [Pemetrexed] (partner 0.2 µM)
In short, it runs like this:
as §1

UMC-11: the relative viability in assay [1] (first compound 0.01 µM) was 0.778; in assay [1] (first compound 0.03162 µM), 0.681; in assay [1] (first compound 0.1 µM), 0.771; in assay [1] (first compound 0.3162 µM), 0.758; in assay [1] (first compound 1 µM), 0.935; in assay [2] (first compound 0.5 µM), 0.511. The relative viability was 0.509 in assay [2] (first compound 5 µM); 0.449 in assay [2] (first compound 15.81 µM); 0.479 in assay [2] (first compound 50 µM); 0.97 in assay [3] (first compound 0.01 µM); 0.922 in assay [3] (first compound 0.03162 µM); 0.991 in assay [3] (first compound 0.1 µM). For the same cell line, the relative viability in assay [3] (first compound 0.3162 µM) was 0.956; in assay [3] (first compound 1 µM), 1; in assay [4] (first compound 0.5 µM), 0.85; in assay [4] (first compound 5 µM) it was 0.912; in assay [4] (first compound 15.81 µM), 0.847; in assay [4] (first compound 50 µM), 0.839.
